Measurements from US5085993A, “Coenzyme-independent L-sorbosone dehydrogenase from Pseudomonas putida” (Hoffmann-La Roche Inc., priority 1987, dated 1992).
Like-named read-outs stand apart in the source and are kept apart here.

Key:
[1] = system: coenzyme independent L-sorbosone dehydrogenase of P. putida ATCC 21812; experiment: Effect of addition of PQQ on the enzyme activity; type: biochemical, Pseudomonas putida ATCC 21812; conditions: 0 PQQ = 100
Text: Significant increase of the enzyme activity was observed by the addition of PQQ.

[2] = system: coenzyme independent L-sorbosone dehydrogenase from P. putida ATCC 21812; experiment: Measurement of the Km value (DCIP/phenazine methosulfate enzyme assay); type: biochemical, Pseudomonas putida ATCC 21812; conditions: DCIP and phenazine methosulfate as electron acceptors; 25° C., pH 7.0; read-out: apparent Michaelis constant (Km) for L-sorbosone
Protocol: In the procedure described under 1) above, the velocities of oxidizing reactions with varying concentrations of L-sorbosone were measured to determine the apparent Michaelis constant (Km) for L-sorbosone. Km value was calculated to be 13±2 mM with DCIP and phenazine methosulfate as electron acceptors.

[3] = system: coenzyme independent L-sorbosone dehydrogenase of P. putida ATCC 21812
Protocol: Enzyme assay was carried out at 25° C. by measuring the decrease of absorbance at 600 nm of DCIP spectrophotometrically. One unit of enzyme activity was defined as the amount of enzyme which catalyzed the reduction of 1 μmole of DCIP per minute. The extinction coefficient of DCIP at pH 7.0 was taken as 9.45 mM^-1.
The basal reaction mixture was prepared by mixing 6 ml of 0.1M potassium phosphate buffer (pH 7.0) containing 0.3% Triton X-100, 0.45 ml of 2.5 mM DCIP and 10.35 ml of water. A cuvette with 1 cm light path contained 0.4 ml of basal reaction mixture, 20 μl of 10 mM phenazine methosulfate, 10 μl of enzyme solution and 20 μl of 110 mM L-sorbosone solution. A reference cuvette contained all the reagents except enzyme solution, but 10 μl of water was added instead. The reaction was started by the addition of the substrate.

O=C(O)c1cc(C(=O)O)c2c(n1)C(=O)C(=O)c1cc(C(=O)O)[nH]c1-2 [PQQ, pyrroloquinoline quinone]
Relative enzyme activity ([1]; PQQ concentration 0.1 (Micro Moles)): 106 | Relative enzyme activity ([1]; PQQ concentration 0.2 (Micro Moles), 0.2 µM): 142 | Relative enzyme activity ([1]; PQQ concentration 0.5 (Micro Moles), 0.5 µM): 150 | Relative enzyme activity ([1]; PQQ concentration 0.9 (Micro Moles), 0.9 µM): 158 | Relative enzyme activity ([1]; PQQ concentration 6.0 (Micro Moles), 6 µM): 174 | Relative enzyme activity ([1]; PQQ concentration 15.0 (Micro Moles), 15 µM): 192

O=CC(=O)[C@@H](O)[C@H](O)[C@@H](O)CO [L-sorbosone]
Km [2]: 13 ± 2 mM

O=C(O)CI [ICH2 COOH, monoiodoacetate]
Relative activity (%) [3]: 88.6%

[N-]=[N+]=[N-].[Na+] [NaN3, Sodium azide]
Relative activity (%) ([3]; inhibitor 25.0 mM, None = 100.0): 77.3%
